Data on nine molecules can be found in patent US11752155B2, “Treatment of autism spectrum disorders, obsessive-compulsive disorder and anxiety disorders” (Rugen Holdings (Cayman) Limited, priority 2016, dated 2023).

Each structure is given as a SMILES string. Values joined by “and” are separate entries in the source; they are usually repeats but may differ in a detail not shown here. Identical values can stand only once. Like-named read-outs stand apart in the source and are kept apart here.

For data set [1], the target named is native rat brain NR2B receptors (Rattus norvegicus (Rat), UniProt P35439+Q00960). The data set is described as follows: NR2B radioligand binding assay in rat brain using [3H] (E)-N1-(2-methoxybenzyl)-cinnamidine. Particulars: rat brain NR2B receptors. As to the method:
This example describes an NR2B receptor binding assay in rat brain using [^3H] […] The binding assay method was adapted from a previously described cellular human NR1a/NR2B cloned receptor assay (Kiss et al. Neurochem. Internatl. 2005, 46:453-464) to rat brain tissue. This assay serves as a selective measure of NR2B receptor binding activity in native rat brain receptors. Briefly, the brains of male Wistar rats were homogenized (Polytron) before centrifugation at 40,000×g for 15 minutes at 4° C. After 2 washes, the final pellet was homogenized and stored at −80° C. The protein concentration was determined by Bradford assay. [^3H] […] Non-specific binding was assessed in the presence of excess (10 μM) (E)-N1-(2-nethoxybenzyl)-cinnamidine.
Test compounds were solubilized at 10 mM in DMSO. Then the dilutions were performed with a constant solvent concentration (1% DMSO) in the assay. After incubation for 4.5 hours at room temperature, the assays were filtered on GF/3 filters pretreated with 0.3% (v/v) polyethylenimine (PEI) with a Packard system. The experiment was performed in duplicate (n=2).

In the next data set the target is CYP2D6 (Homo sapiens (Human), UniProt P10635). As to the kind of experiment: CYP P450 enzyme inhibition in pooled human liver microsomes (dextromethorphan probe). It counts as in vitro ADME. To be noted: for inhibition at 10 min, 10 µM: human, pooled human liver microsomes, pH 7.4, probe dextromethorphan, 5 μM, read-out: CYP2D6 Inhibiton at 10 μM; for IC50: Table 1.4B. The procedure: Test compound concentration-dependent response studies were performed in triplicate.

The target of another data set is hERG channel (Homo sapiens (Human), UniProt Q12809). As to the kind of experiment: hERG channel inhibition, whole cell patch clamp in HEK293 cells. It counts as cell-based. Particulars: for inhibition at 5 min, 10 µM: human, HEK293 cells stably expressing hERG channel, pH 7.35; for IC50: Table 1.3B.
A further data set addresses human NR1/NR2B (Homo sapiens (Human), UniProt Q05586+Q13224). As to the kind of experiment: NR2B antagonist activity: calcium influx (Fluo-4) assay in HEK293 cells. To be noted: read-out: NR2B IC50. It counts as cell-based. The procedure:
Activation of the NR2A or NR2B subtype of NMDA receptor with glutamate as an agonist and glycine co-agonist on these cells results in calcium influx, which can be monitored with fluorescent indicator Fluo-4.
For experiments, the cells were seeded onto poly-D-lysine-coated 96-well black plates with clear bottom (Corning) at a density of ˜50,000 cells/well. After overnight culture, the growth medium was removed from the wells and the cells were incubated at 37° C. for 60 minutes in Hanks buffer containing 4 μM fluo-4-AM (Invitrogen) and 0.1% bovine serum albumin (BSA). After dye-loading, the cells were washed three times with Hanks buffer and incubated for 10 minutes at room temperature with various concentrations of test compounds prepared in Hanks buffer with 0.1% BSA. The cell plates were placed onto an FDSS Cell fluorescence reader (Hamamatsu). After 20 seconds of reading background fluorescence, agonist glutamate at final 100 µM and co-agonist glycine at final 50 μM were added to the cells to activate the receptor, and the resulting fluorescence changes were recorded and quantified. Based on the changes in fluorescence intensity, the pharmacological effect of test compounds was analyzed and the IC50 values derived from a non-linear least squares fitting of the concentration-dependent response to a standard logistic equation using Prism (Graphpad Software, Inc.): Amplitude=Max Amplitude/(1+(IC50/[antagonist])^n).

Data set [2] concerns wild type mice (male NMRI). As to the kind of experiment: Marble Burying Test in wild type mice. It counts as in vivo, mouse. As to the method: Animals. Male NMRI mice (20-30 g body weight) were obtained from Janvier Labs (Le Genest-Saint Isle, France) and allowed to acclimate to the animal facility for at least 5 days. Twelve mice were studied per treatment group.
Compound formulation. The test compounds were prepared in a vehicle of 0.5% DMSO and 4% HP-β-CD, and administered orally (PO) or IP. The test compounds or vehicle were administered 20 minutes before the behavioral test described below. Clobazam (8 mg/kg IP), administered 30 minutes before the test, was used as the positive reference compound.
Clobazam was dispersed in 0.2% hydroxypropylmethylcellulose (HPMC) in physiological saline. Dosing volume was 10 mL/kg.
Testing procedure. The Marble Burying Test was conducted as previously described by Broekkamp et al. (Eur. J. Pharmacol. 1986, 126:223-229). Mice exposed to small novel objects (marbles) will bury them in the sawdust floor covering. Anxiolytics decrease the number of marbles buried at non-sedating doses. Mice were individually placed in transparent plastic cages (33×21×18 cm) with 5 cm of sawdust on the floor and 25 marbles grouped in the center of the cage. The cage was covered with an inverted plastic cage. Each test cage, together with the marbles, was impregnated with mouse odor before-hand by leaving 10 mice in the cage for 15 minutes. These mice then played no further role in the experiment. The number of marbles covered by sawdust (⅔ or more) was counted at the end of the 30-minute test. The test was performed blind (compounds versus vehicle).
Statistical analyses. Data were analyzed by comparing test compound-treated groups with the vehicle control group using the Kruskal-Wallis test followed by post-hoc Mann-Whitney U tests. Data comparing the reference compound with the vehicle were analyzed using the Mann-Whitney U test. A p value<0.05 was considered significant.

Setting [3] is: mean of replicates, read-out: Arithmetic Mean Ki.
Where [4] appears, read: Mus musculus, ip, read-out: Percent Change in marbles buried relative to vehicle.
Where [5] appears, read: Mus musculus, po, read-out: Percent Change in marbles buried relative to vehicle.

human NR1/NR2B, sequence (Q13224 27-1484, other chains not shown): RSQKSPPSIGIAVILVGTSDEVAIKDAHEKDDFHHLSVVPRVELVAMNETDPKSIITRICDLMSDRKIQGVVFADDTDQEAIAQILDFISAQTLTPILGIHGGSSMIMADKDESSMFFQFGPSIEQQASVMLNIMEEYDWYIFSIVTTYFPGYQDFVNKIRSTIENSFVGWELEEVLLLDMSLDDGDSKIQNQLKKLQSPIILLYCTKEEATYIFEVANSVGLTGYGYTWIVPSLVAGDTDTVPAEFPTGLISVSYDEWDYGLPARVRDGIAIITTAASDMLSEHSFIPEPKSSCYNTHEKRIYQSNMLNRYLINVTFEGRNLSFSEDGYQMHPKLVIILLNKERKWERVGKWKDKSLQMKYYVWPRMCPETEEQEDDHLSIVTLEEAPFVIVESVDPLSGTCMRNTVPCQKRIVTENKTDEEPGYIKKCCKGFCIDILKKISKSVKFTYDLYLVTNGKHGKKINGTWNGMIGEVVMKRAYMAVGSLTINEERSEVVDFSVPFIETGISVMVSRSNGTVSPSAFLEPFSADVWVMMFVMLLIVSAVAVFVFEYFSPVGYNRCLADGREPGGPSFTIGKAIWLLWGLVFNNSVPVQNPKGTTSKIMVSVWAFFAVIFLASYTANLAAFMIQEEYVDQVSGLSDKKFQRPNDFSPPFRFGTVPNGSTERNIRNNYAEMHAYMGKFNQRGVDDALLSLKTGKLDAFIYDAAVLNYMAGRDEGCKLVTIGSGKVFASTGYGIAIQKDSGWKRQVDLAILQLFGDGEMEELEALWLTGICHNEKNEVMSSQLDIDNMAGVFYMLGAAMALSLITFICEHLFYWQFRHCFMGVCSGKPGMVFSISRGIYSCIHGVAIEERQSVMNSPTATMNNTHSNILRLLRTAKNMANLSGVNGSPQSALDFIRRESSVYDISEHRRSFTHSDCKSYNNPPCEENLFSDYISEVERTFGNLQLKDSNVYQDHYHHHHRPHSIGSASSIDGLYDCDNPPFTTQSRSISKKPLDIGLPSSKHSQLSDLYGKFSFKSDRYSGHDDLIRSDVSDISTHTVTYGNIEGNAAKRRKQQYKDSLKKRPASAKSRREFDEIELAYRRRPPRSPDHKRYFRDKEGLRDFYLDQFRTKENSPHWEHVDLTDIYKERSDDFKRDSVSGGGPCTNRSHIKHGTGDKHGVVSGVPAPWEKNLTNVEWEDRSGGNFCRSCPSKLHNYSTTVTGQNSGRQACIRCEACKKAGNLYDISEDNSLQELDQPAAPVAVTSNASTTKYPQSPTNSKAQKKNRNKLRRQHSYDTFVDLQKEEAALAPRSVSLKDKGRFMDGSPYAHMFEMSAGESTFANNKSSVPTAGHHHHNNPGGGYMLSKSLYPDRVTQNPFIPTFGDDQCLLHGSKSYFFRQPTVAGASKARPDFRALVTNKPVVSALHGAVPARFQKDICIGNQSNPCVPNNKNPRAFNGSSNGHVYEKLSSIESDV
native rat brain NR2B receptors, sequence (Q00960 27-1482, other chains not shown): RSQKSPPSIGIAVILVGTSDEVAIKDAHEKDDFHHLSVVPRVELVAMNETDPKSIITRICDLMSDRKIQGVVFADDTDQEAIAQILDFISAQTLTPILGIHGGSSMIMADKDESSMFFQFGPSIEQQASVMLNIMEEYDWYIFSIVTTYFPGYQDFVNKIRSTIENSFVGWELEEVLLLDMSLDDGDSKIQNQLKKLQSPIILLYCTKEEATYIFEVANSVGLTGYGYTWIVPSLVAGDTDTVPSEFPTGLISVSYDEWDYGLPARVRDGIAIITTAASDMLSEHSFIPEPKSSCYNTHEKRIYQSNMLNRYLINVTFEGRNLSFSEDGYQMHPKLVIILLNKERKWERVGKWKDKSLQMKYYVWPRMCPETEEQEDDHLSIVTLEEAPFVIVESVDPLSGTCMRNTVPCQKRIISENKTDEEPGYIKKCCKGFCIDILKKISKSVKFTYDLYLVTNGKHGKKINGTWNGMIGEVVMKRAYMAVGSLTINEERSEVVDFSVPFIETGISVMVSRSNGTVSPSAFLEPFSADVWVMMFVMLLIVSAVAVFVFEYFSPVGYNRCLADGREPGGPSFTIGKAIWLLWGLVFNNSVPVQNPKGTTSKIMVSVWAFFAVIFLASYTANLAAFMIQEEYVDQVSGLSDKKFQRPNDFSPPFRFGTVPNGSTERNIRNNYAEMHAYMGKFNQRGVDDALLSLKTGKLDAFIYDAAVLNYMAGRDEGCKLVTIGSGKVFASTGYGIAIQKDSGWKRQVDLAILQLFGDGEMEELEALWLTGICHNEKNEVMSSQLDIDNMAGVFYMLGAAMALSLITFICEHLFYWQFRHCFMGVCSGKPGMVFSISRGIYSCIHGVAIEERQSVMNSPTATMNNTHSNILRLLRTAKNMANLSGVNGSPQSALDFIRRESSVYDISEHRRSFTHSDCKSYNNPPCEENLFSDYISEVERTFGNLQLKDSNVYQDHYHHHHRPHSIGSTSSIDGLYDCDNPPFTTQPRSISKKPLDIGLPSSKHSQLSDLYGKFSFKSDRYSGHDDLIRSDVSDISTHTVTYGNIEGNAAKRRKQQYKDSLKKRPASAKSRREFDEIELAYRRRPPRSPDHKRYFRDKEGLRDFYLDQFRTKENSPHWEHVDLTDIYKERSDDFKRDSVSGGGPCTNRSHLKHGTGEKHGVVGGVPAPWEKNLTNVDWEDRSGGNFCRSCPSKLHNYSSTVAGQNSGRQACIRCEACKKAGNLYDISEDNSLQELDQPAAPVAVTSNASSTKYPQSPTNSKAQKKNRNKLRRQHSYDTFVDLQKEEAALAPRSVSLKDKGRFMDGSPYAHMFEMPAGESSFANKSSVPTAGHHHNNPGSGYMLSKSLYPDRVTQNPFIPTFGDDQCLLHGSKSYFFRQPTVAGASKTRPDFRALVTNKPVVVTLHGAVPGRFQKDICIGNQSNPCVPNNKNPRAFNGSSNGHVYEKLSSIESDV
CYP2D6, sequence (P10635 whole entry): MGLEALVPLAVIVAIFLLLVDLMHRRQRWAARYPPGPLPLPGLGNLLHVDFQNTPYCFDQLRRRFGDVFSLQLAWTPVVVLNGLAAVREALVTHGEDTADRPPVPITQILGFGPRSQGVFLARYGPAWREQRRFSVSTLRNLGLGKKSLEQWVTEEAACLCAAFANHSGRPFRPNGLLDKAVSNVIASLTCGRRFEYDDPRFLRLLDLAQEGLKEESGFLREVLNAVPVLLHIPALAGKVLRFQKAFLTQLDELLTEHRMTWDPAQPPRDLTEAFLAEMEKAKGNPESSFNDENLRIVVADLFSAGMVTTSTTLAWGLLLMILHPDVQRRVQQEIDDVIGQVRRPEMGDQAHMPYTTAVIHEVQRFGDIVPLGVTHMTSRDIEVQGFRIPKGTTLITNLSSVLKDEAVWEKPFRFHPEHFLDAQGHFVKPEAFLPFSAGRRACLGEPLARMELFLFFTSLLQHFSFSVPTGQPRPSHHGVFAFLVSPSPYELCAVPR
hERG channel, sequence (Q12809 whole entry): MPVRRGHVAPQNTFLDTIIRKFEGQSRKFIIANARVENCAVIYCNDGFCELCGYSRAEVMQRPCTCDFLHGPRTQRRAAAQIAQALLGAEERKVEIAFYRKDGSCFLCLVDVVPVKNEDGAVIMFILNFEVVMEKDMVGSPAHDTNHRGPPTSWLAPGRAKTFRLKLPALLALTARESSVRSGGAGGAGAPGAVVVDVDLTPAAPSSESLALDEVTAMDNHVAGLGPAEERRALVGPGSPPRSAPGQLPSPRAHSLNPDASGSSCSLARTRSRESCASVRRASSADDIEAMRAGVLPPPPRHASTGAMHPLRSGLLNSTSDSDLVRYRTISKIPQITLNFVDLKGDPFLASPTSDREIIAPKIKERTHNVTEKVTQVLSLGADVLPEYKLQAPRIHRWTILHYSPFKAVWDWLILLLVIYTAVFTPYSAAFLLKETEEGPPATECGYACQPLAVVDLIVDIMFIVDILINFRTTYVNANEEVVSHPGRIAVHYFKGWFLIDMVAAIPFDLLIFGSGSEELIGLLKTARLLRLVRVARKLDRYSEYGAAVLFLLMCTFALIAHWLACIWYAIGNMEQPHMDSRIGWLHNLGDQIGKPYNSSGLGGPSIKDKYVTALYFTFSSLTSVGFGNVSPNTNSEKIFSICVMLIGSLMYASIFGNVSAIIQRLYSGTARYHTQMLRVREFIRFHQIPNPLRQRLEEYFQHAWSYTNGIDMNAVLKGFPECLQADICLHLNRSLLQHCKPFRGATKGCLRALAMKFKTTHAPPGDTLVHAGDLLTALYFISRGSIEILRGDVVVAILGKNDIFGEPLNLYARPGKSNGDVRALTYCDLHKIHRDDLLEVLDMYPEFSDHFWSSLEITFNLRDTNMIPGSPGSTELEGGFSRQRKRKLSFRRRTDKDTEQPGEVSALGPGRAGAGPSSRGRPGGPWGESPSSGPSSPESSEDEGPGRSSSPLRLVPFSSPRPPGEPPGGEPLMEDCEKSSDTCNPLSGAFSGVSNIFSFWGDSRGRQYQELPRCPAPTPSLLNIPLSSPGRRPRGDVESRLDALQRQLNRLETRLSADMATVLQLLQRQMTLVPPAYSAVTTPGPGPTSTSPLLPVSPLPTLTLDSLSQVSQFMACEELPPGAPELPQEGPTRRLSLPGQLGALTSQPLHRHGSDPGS

Broadly, the Ki is a measure of affinity in units of concentration, obtained from inhibition or displacement. A word on the IC50: it is the concentration at which inhibition is half-maximal. Consider `O=C(OCc1ccc(Cl)cc1)N1CC[C@H](CNc2nccn3cnnc23)C(F)(F)C1` [E1-1.3^B′], for which, in data set [1] (setting [3]), the Ki came to 8.67 nM. Further, the inhibition at 10 min, 10 µM at CYP2D6 was 37%. Also, the inhibition at 5 min, 10 µM on hERG channel worked out at 19%. The IC50 on human NR1/NR2B (Table 1.1B), on human NR1/NR2B (Table 1.3B) and on human NR1/NR2B (Table 1.4B) was 14.8 nM throughout.

As to `O=C(OCc1ccc(F)cc1)N1CC[C@H](CNc2nccn3cnnc23)C(F)(F)C1` [E1-1.4^B′], on CYP2D6, the inhibition at 10 min, 10 µM is 19%. Further, the inhibition at 5 min, 10 µM against hERG channel worked out at 11%. Further, the IC50 on human NR1/NR2B (Table 1.1B), on human NR1/NR2B (Table 1.3B) and on human NR1/NR2B (Table 1.4B) was 20.5 nM each time.

Regarding `Cc1ccc(COC(=O)N2CC[C@H](CNc3cnccn3)C(F)(F)C2)cc1` [E1-21.2^B′], on CYP2D6, the inhibition at 10 min, 10 µM was 97%. The inhibition at 5 min, 10 µM against hERG channel amounted to 27%. The IC50 on human NR1/NR2B (Table 1.1B), at human NR1/NR2B (Table 1.3B) and on human NR1/NR2B (Table 1.4B) was 13.9 nM in each case.

Regarding `O=C(OCc1ccc(F)cc1)N1CC[C@H](CNc2ncccn2)C(F)(F)C1` [E1-22.4^B′, (R)-4-fluorobenzyl 3,3-difluoro-4-((pyrimidin-2-ylamino)methyl)piperidine-1-carboxylate methanesulfonate], the IC50 against CYP2D6 is more than 50 µM. Moreover, on hERG channel, the IC50 came to 39 µM. Besides, in data set [2] (setting [4]), the change in vivo at 0.3 mg/kg was -6% and the change in vivo at 3 mg/kg is -99%. Moreover, the change in vivo at 1.78 mg/kg in data set [2] (Mus musculus, ip, 1.78 mg/kg, read-out: Percent Change in marbles buried relative to vehicle) was -97%.

The molecule `CCc1ccc(COC(=O)N2CC[C@H](CNc3ncccn3)C(F)(F)C2)cc1` [E1-22.5^B′, (R)-4-ethylbenzyl 3,3-difluoro-4-((pyrimidin-2-ylamino)methyl)piperidine-1-carboxylate methanesulfonate] showed an IC50 at CYP2D6 of 29 µM. Moreover, inhibition against hERG channel was half-maximal at 9.2 µM (IC50). Further, the change in vivo at 0.1 mg/kg in data set [2] (Mus musculus, ip, 0.1 mg/kg, read-out: Percent Change in marbles buried relative to vehicle) is -9%. Moreover, in data set [2] (setting [4]), the change in vivo at 0.3 mg/kg worked out at 8% and the change in vivo at 3 mg/kg is -100%. In addition, the change in vivo at 10 mg/kg in data set [2] (Mus musculus, ip, 10 mg/kg, read-out: Percent Change in marbles buried relative to vehicle) is -100%. In addition, in data set [2] (setting [5]), the change in vivo at 0.3 mg/kg was -11%, the change in vivo at 1 mg/kg is -15% and the change in vivo at 3 mg/kg is -76%. Also, the “efficacy in the Marble Burying Test” value in data set [2] (lowest test concentration of 1 mg/kg, IP) was “fully efficacious”.

`Cc1ccc(COC(=O)N2CC[C@H](CNc3ccc(C)cn3)C(F)(F)C2)cc1` [E1-23.26^B′, (R)-4-methylbenzyl 3,3-difluoro-4-(((5-methylpyridin-2-yl)amino)methyl)piperidine-1-carboxylate]: the Ki in data set [1] (setting [3]) came to 6.5 nM. For the same molecule, half-maximal inhibition on CYP2D6 (IC50) was put at 9.7 µM.

`Cc1ccc(COC(=O)N2CC[C@H](CNc3cccnn3)C(F)(F)C2)cc1` [E1-24.2^B′, (R)-4-methylbenzyl 3,3-difluoro-4-((pyridazin-3-ylamino)methyl)piperidine-1-carboxylate]: the Ki was 2.1 nM and 3.6 nM in data set [1] (individual replicate, read-out: Ki, result from each assay); 2.85 nM in data set [1] (setting [3]). The IC50 at CYP2D6 amounted to 15 µM; on hERG channel it was 25 µM.

At CYP2D6, `Cc1ccc(COC(=O)N2CC[C@H](CNc3ccncc3)C(F)(F)C2)cc1` [E1-38.2^B′, (R)-4-methylbenzyl 3,3-difluoro-4-((pyridin-4-ylamino)methyl)piperidine-1-carboxylate methanesulfonate] showed an IC50 of 1.49 µM. For the same molecule, half-maximal inhibition at hERG channel (IC50) was put at 2.9 µM. For the same molecule, in data set [2] (setting [4]), the change in vivo at 0.3 mg/kg was found to be 4%, the change in vivo at 1 mg/kg was -18% and the change in vivo at 3 mg/kg is -76%.

On to `O=C(OC1Cc2ccccc2C1)N1CC[C@H](CNc2ncccn2)C(F)(F)C1` [III-E1-22.1^B′, (R)-2,3-dihydro-1H-inden-2-yl 3,3-difluoro-4-((pyrimidin-2-ylamino)methyl)piperidine-1-carboxylate methanesulfonate], for which the IC50 on CYP2D6 was more than 50 µM; against hERG channel, 35 µM.
